Experimental data taken from US20230172962A1, “NRTIS, NRTI METABOLITES, AND NRTI ANALOGS FOR MACULAR DEGENERATION AND VIRAL INFECTIONS” (priority 2020, published 2023).

Key:
[1] = system: laser-induced choroidal neovascularization (CNV); test: Laser-induced choroidal neovascularization, mouse model of neovascular (wet) macular degeneration; assay type: in vivo; settings: wild-type C57BL/6J mice, CNV lesion volume 7 days after laser; FIGS. 3A, 3B, 4
Protocol: (§1) Animals. Both male and female wild-type (WT) C57BL/6J mice (The Jackson Laboratory, Bar Harbor, Me., United States of America) between 6-10 weeks of age were used in this study. For all procedures, anesthesia was achieved by intraperitoneal injection of 100 mg/kg ketamine hydrochloride (Fort Dodge Animal Health, Overland Park, Kans., United States of America) and 10 mg/kg xylazine (Phoenix Scientific, Inc., St. Joseph, Mo., United States of America), and pupils were dilated with topical 1% tropicamide and 2.5% phenylephrine hydrochloride (Alcon Laboratories, Inc., Ft. Worth, Tex., United States of America). All animal experiments were approved by the Institutional Animal Care and Use Committees of the University of Virginia (Charlottesville, Va., United States of America) and was performed in accordance with the Statement for the Use of Animals in Ophthalmic and Visual Research of the Association for Research in Vision and Ophthalmology (Washington, D.C., United States of America).
(§2) Subretinal and intravitreous injections. Subretinal injections (SRI) (1 μl) and intravitreous injections (0.5 μl) in mice were performed using a 35-gauge needle (Ito Co.). In vitro transcribed Alu RNA (300 ng/μl) was injected into the subretinal space via SRI. 1 mM of 3′-Azido-3′-deoxythymidine β-D-glucuronide (GAZT; Cayman Chemical, Ann Arbor, Mich., United States of America), Lamivudine (R)-sulfoxide (LSO; Toronto Research Chemicals, Toronto, Canada) 2 mM of 3′-Amino-3′-deoxythymidine (AMT; Toronto Research Chemicals), or PBS was injected into the vitreous humor. Kamuvudines including but not limited to K-8 (2-Et-AZT) and K-9 (3-Me-3TC, a.k.a. 3-Me-lamivudine) were previously described (see U.S. Pat. No. 10,294,220, which is incorporated herein by reference in its entirety).
Choroidal neovascularization. Experimental choroidal neovascularization (CNV) was induced via laser photocoagulation (OcuLight GL, IRIDEX Corp., Mountain View, Calif., United States of America; 180 mW, 100 ms, 75 μm) in both eyes. The volume of the CNV lesions was measured after 7 days using a scanning laser confocal microscope (A1R Nikon confocal microscope system, Nikon USA, Melville, N.Y., United States of America) after 0.7% FITC-isolectin B4 staining (Vector Laboratories, Burlingame, Calif., United States of America, USA). The volume of each lesion was calculated using FIJI software (Schindelin et al., 2012).
The ability of NRTI, NRTI metabolites, and NRTI analogs to inhibit neovascular (wet) macular degeneration in a mouse model was tested. The results are shown in FIGS. 3A and 3B and in FIG. 4.

subretinal fibrosis = test: Subretinal fibrosis after laser injury / subretinal Alu RNA in mice; assay type: in vivo, mouse; settings: wild-type mice, intravitreous injection, laser injury with subretinal Alu RNA, collagen type 1 staining after 7 days, FIGS. 6B
Protocol: as §1
Subretinal and intravitreous injections. Subretinal injections (SRI) (1 μl) and intravitreous injections (0.5 μl) in mice were performed using a 35-gauge needle (Ito Co.). […]
Subretinal fibrosis. […] After mounting in slides, the RPE flat mounts were imaged using a scanning laser confocal microscope (A1R Nikon confocal microscope system, Nikon USA) and the volume of each lesion was calculated by FIJI software. […]

[2] = Cataract formation after administration of fluoxetine preparations to the eye; assay type: in vivo
IL-1β release = test: ELISA of Alu RNA-induced IL-1β release from BMDMs; assay type: cell-based; settings: mouse BMDMs, 200 μM compound for 1 hour, then Alu RNA transfection overnight, FIG. 2
Protocol: (§3) Cell Stimulation. Bone marrow derived macrophages (BMDMs) were treated with 200 μM Zidovudine (AZT), GAZT, AMT, or LSO for 1 hour. Cells were transfected with Alu RNA overnight using Lipofectamine 3000 (Invitrogen) according to manufacturer's instructions.
Enzyme-linked immunosorbent assay (ELISA). 1.2 million cells/mL were seeded per well in 6-well cell culture dishes overnight and stimulated as mentioned above. Secreted mouse IL-1β in the medium were detected by ELISA (R&D Systems, Inc., Minneapolis, Minn., United States of America) according to the manufacturer's instructions.
The ability of NRTI and NRTI metabolites to inhibit IL-1β release was tested by ELISA.

[3] = system: retinal pigmented epithelium (RPE); test: Alu RNA-induced RPE degeneration, mouse model of atrophic (dry) macular degeneration; assay type: in vivo; settings: mice, subretinal Alu RNA, intravitreous 1 mM GAZT or LSO, 2 mM AMT; ZO-1 RPE flat mounts 7 days after injection; FIG. 5
Protocol: as §1, §2

[4] = system: cleavage of pro-caspase-1 into active caspase-1 (NLRP3 inflammasome activation); test: Western blot of Alu RNA-induced caspase-1 cleavage (inflammasome activation) in BMDMs; assay type: cell-based; settings: mouse BMDMs, 200 μM compound for 1 hour, then Alu RNA transfection overnight, FIG. 1
Protocol: as §3
Western blotting. Serum free media (1 mL) from stimulated BMDMs was transferred into fresh tubes and centrifuged for 10 min at 12,000 rpm at 4° C. 15 μl of 10% sodium deoxycholate was added to the supernatants, vortexed and kept on ice. 72 μl Trichloroacetic acid (Sigma-Aldrich, St. Louis,. Mo., United States of America) was subsequently added and the tubes were kept on ice overnight. After centrifugation for 30 min at 12,000 rpm at 4° C., the pellet was washed twice with 500 μl ice-cold acetone. The pellet was dried and boiled with LDS Sample Buffer and β-mercaptoethanol (Sigma-Aldrich). The precipitated protein was analyzed by immunoblotting.
The ability of NRTI and NRTI metabolites to inhibit inflammasome activation was tested by western blot.

| SMILES | laser-induced choroidal neovascularization (CNV) volume [1] | subretinal fibrosis volume (subretinal fibrosis) | cataract formation, share of subjects [2] | Alu RNA-induced IL-1β release (IL-1β release) | Alu RNA-induced RPE degeneration [3] | Alu RNA-induced cleavage of pro-caspase-1 (50 kDa band) into active caspase-1 (20 kDa band) [4] |
| --- | --- | --- | --- | --- | --- | --- |
| CCOC[C@H]1O[C@@H](n2cc(C)c(=O)n(CC)c2=O)C[C@@H]1N=[N+]=[N-] [Kamuvudine K-8, 1-[(2R,4S,5S)-4-azide-5-(ethoxymethyl)oxolan-2-yl)-3-ethyl-5-methyl-1,2,3,4-etrahydropyrimidine-2,4-dione] | inhibited | reduced the volume of subretinal fibrosis |  |  |  |  |
| CNCCC(Oc1ccc(C(F)(F)F)cc1)c1ccccc1 (racemic) [racemic fluoxetine, fluoxetine] |  |  | up to 50% |  |  |  |
| Nc1ccn([C@@H]2C[S@@+]([O-])[C@H](CO)O2)c(=O)n1 [LSO, Lamivudine (R)-sulfoxide] |  |  |  | inhibited | inhibited |  |
| Cc1cn([C@H]2C[C@H](N=[N+]=[N-])[C@@H](CO)O2)c(=O)[nH]c1=O [AZT, 1-[(2R,4S,5S)-4-Azido-5-(hydroxymethyl)oxolan-2-yl]-5-methylpyrimidine-2,4-dione, reference compound] | inhibited | reduced subretinal fibrosis volume |  | inhibited |  | inhibited |
| Cc1cn([C@H]2C[C@H](N=[N+]=[N-])[C@@H](CO[C@@H]3O[C@H](C(=O)O)[C@@H](O)[C@H](O)[C@H]3O)O2)c(=O)[nH]c1=O [GAZT, 3′-Azido-3′-deoxythymidine β-D-glucuronide] | inhibited |  |  | inhibited | inhibited | inhibited |
| CCOCC1OC(n2ccc(N(CC)CC)nc2=O)CS1 (stereo not drawn) [Kamuvudine K-9] | inhibited |  |  |  |  |  |
| Cc1cn([C@H]2C[C@H](N)[C@@H](CO)O2)c(=O)[nH]c1=O [AMT, 3′-Amino-3′-deoxythymidine] | inhibited |  |  | inhibited | inhibited | inhibited |
